Laboratory results taken from patent publication US12251422B2, “Compositions and methods for treating neurological and other disorders” (Rush University Medical Center, priority 2018, dated 2025).

Test system: mice with CIA
Assay: Collagen-induced arthritis (CIA) in DBA/1J mice
Assay type: in vivo, mouse
Conditions: 1 mg/kg body wt/d i.p. from 29 dpi
Description: FIG. 7 (A-V). The wtTIDM, but not mTIDM, peptide protects mice from experimental allergic encephalomyelitis (EAE) and collagen-induced arthritis (CIA). […] Mice (n=6 per group in two independent experiments) were scored daily. […] On 22 dpi, general motor activities were monitored using the Ethovision XT 13.0 Open Field Activity System (Noldus) (B, heat-map images representing overall motor activities; C, distance travelled; D, rearing; E, velocity; F, acceleration) and rotorod (G). Foot print analysis (H, stride length; I, print length; J, sway length; K, toe spread) was also performed, L) CIA was induced in male DBA/1J mice by bovine type II collagen immunization and from 29 dpi, mice were treated with wtTIDM and mTIDM peptides (1 mg/kg body wt/d) via i.p. injection. Mice (n=6 per group in two independent experiments) were scored daily. […] On 60 dpi, general motor activities were monitored by Ethovision System (M, heat-map images representing overall motor activities; N, distance travelled; O, rearing; P, velocity), rotorod (Q) and grip strength (R). Foot print analysis (S, stride length; T, print length; U, sway length; V, toe spread) was also performed. Six mice (n=6 per group) were used in two independent experiments. ap<0.001 & bp<0.05 vs control; cp<0.001 & dp<0.05 vs EAE or CIA by two-sample t-tests.
FIG. 26 (A-D). Footprint analysis of mice with CIA after treatment with wtTIDM and mTIDM peptides. On the walking track, we applied white paper strips and obtained the footprints of mice of different groups (A, control; B, CIA; C, CIA+wtTIDM; D, CIA+mTIDM) on paper using black ink. A total of 30-40 steps for each group were determined. Four different footprint measurements (SL, PL, SWL, and TS) were calculated in centimeters from the recorded prints of mice. Six mice (n=6 per group) were used in two independent experiments.
Male DBA/1J mice (8-9 week old) were immunized intradermally at the base of the tail with 100 μg of bovine type II collagen emulsified in […] Freund's Adjuvant and M. tuberculosis H37RA. […]

SMILES: CC[C@H](C)[C@H](NC(=O)[C@H](CCCCN)NC(=O)[C@@H](NC(=O)[C@H](CCC(N)=O)NC(=O)[C@H](CCCNC(=N)N)NC(=O)[C@@H](N)CC(=O)O)[C@@H](C)CC)C(=O)N[C@@H](Cc1c[nH]c2ccccc12)C(=O)N[C@@H](Cc1ccccc1)C(=O)N[C@@H](CCC(N)=O)C(=O)N[C@@H](CC(N)=O)C(=O)N[C@@H](CCCNC(=N)N)C(=O)N[C@@H](CCCNC(=N)N)C(=O)N[C@@H](CCSC)C(=O)N[C@@H](CCCCN)C(=O)N[C@@H](Cc1c[nH]c2ccccc12)C(=O)N[C@@H](CCCCN)C(=O)N[C@@H](CCCCN)C(=O)N1CCC[C@H]1C(=O)NCC(=O)N[C@@H](C)C(=O)N[C@@H](Cc1c[nH]cn1)C(=O)N[C@@H](CCC(N)=O)C(=O)N[C@@H](CCCCN)C(=O)O [wtTIDM, drqikiwfqnrrmkwkkPGAHQK]
- clinical symptoms of CIA: decreased
- footprint behavior in CIA mice (60 dpi): improved
- locomotor activities in CIA mice (60 dpi): enhanced
